Measured values reported in patent US4772586A, “Novel derivatives of arginine vasopressin antagonists” (Medical College of Ohio, priority 1986, dated 1988).
*1 amine or outer side, *2 acyl side, *3 side chain or, on linkers, in order; H or OH if unused. Where a SMILES comes first, the peptide text is derived from it. Bridges are numbered along the chain shown (N, C = ends). [ ]: non-standard residue; d: D form. The star is where a group is joined. Ethylenediamine = C(CN[*:2])N[*:1]; X1 = O=C(CC1(S[*:2])CCCCC1)[*:1]; NH(CH2)4NH2 = NCCCCN*; NHCH2CH2OH = OCCN*; NHBu = CCCCN*

Experiments:
[1] = system: antidiuretic response to arginine vasopressin; assay: Antagonism of the antidiuretic response to arginine vasopressin (Anti-ADH); type: in vivo, rats; details: for Anti-ADH Potency pA2: Table 4, estimated in vivo pA2; for Anti-ADH pA2: Table 1, estimated in vivo pA2 = negative log of effective dose divided by volume of distribution (67 ml/kg)
Procedure, shortened: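 Compounds were given intravenously to ethanol-anesthetized, water-loaded rats, followed by arginine vasopressin challenge. Effective dose (nmol/kg) is the antagonist dose that reduces the response to 2x units of agonist, given 20 min later, to the response to 1x units. pA2 is the negative log of effective dose divided by an estimated 67 ml/kg distribution volume.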

[2] = system: vasopressor response to arginine vasopressin; assay: Antagonism to the vasopressor response (Anti-VP); type: in vivo; details: estimated in vivo pA2; for Anti-VP Potency pA2: Table 4, ^+ = mixed; for Anti-VP pA2: Table 1
Procedure, shortened: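 In vivo antagonism of arginine vasopressin pressor response per Dyckes et al. Effective dose (nmol/kg) is the antagonist dose making the response to 2x agonist units, injected 20 min later, equal that to 1x units. pA2 is the negative log of effective dose divided by 67 ml/kg distribution volume.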

Row | Compound | Anti-ADH Potency pA2 [1] | Anti-VP Potency pA2 [2] | Anti-ADH pA2 [1] | Anti-VP pA2 [2]
1 | CCNC(=O)CNC(=O)[C@H](CCCNC(=N)N)NC(=O)[C@@H]1CCCN1C(=O)[C@@H]1CSSC2(CCCCC2)CC(=O)N[C@H]([C@H](C)CC)C(=O)N[C@@H](Cc2ccccc2)C(=O)N[C@@H]([C@@H](C)CC)C(=O)N[C@@H](CC(N)=O)C(=O)N1 [[1-(beta-mercapto-beta,beta-cyclopentamethylenepropionic acid), 2-D-isoleucine, 4-isoleucine, 9-glycine-N-ethylamide]-arginine vasopressin] ([dI]FINCPRG-NHEt; linker N-5 via X1) | 7.86 ± 0.05 | 6.54 ± 0.11 | – | –
2 | CC[C@H](C)[C@@H]1NC(=O)[C@H](Cc2ccccc2)NC(=O)[C@@H](Cc2ccccc2)NC(=O)CC2(CCCCC2)SSC[C@@H](C(=O)N2CCC[C@H]2C(=O)N[C@@H](CCCNC(=N)N)C(=O)NCCN)NC(=O)[C@H](CC(N)=O)NC1=O [[1-(beta-mercapto-beta,beta-cyclopentamethylenepropionic acid), 2-D-phenylalanine, 4-isoleucine, 8-arginine-N-(beta-amino)ethylamide, 9-desglycinamide] vasopressin] ([dF]FINCPR-Ethylenediamine; linker N-5 via X1) | 8.11 ± 0.06 | 7.89 ± 0.04 | – | –
3 | CC[C@H](C)[C@@H]1NC(=O)[C@H](Cc2ccccc2)NC(=O)[C@@H](Cc2ccccc2)NC(=O)CC2(CCCCC2)SSC[C@@H](C(=O)N2CCC[C@H]2C(=O)N[C@@H](CCCNC(=N)N)C(=O)NCCO)NC(=O)[C@H](CC(N)=O)NC1=O [[1-(beta-mercapto-beta,beta-cyclopentamethylenepropionic acid), 2-D-phenylalanine, 4-isoleucine, 8-arginine-N-(beta-hydroxy)ethylamide, 9-desglycinamide] vasopressin] ([dF]FINCPR-NHCH2CH2OH; linker N-5 via X1) | 8.17 ± 0.10 | 7.45 ± 0.12 | – | –
4 | CC[C@H](C)[C@@H]1NC(=O)[C@H](Cc2ccccc2)NC(=O)[C@@H](Cc2ccccc2)NC(=O)CC2(CCCCC2)SSC[C@@H](C(=O)N2CCC[C@H]2C(=O)N[C@@H](CCCNC(=N)N)C(=O)NCCCCN)NC(=O)[C@H](CC(N)=O)NC1=O [[1-(beta-mercapto-beta,beta-cyclopentamethylenepropionic acid), 2-D-phenylalanine, 4-isoleucine, 8-arginine-N-(delta-amino)butylamide, 9-desglycinamide] vasopressin] ([dF]FINCPR-{NH(CH2)4NH2}; linker N-5 via X1) | 8.11 ± 0.03 | 7.61 ± 0.08 | – | –
5 | CC[C@H](C)[C@@H]1NC(=O)[C@H](Cc2ccccc2)NC(=O)[C@@H](Cc2ccccc2)NC(=O)CC2(CCCCC2)SSC[C@@H](C(=O)N2CCC[C@H]2C(=O)N[C@@H](CCCNC(=N)N)C(=O)O)NC(=O)[C@H](CC(N)=O)NC1=O [[1-(beta-mercapto-beta,beta-cyclopentamethylenepropionic acid), 2-D-phenylalanine, 4-isoleucine, 9-desglycinamide]-arginine vasopressin] ([dF]FINCPR-OH; linker N-5 via X1) | 8.05 ± 0.09 | 7.84 ± 0.03 | 7.20 ± 0.10 | 6.74 ± 0.08
6 | CC[C@H](C)[C@@H]1NC(=O)[C@H](Cc2ccccc2)NC(=O)[C@@H](Cc2ccccc2)NC(=O)CC2(CCCCC2)SSC[C@@H](C(=O)N2CCC[C@H]2C(=O)N[C@@H](CCCNC(=N)N)C(=O)NCC(=O)NCCN)NC(=O)[C@H](CC(N)=O)NC1=O [[1-(beta-mercapto-beta,beta-cyclopentamethylenepropionic acid), 2-D-phenylalanine, 4-isoleucine, 9-glycine-N-(beta-amino)ethylamide]-arginine vasopressin] ([dF]FINCPRG-Ethylenediamine; linker N-5 via X1) | 8.10 ± 0.10 | 7.58 ± 0.07 | – | –
7 | CC[C@H](C)[C@@H]1NC(=O)[C@H](Cc2ccccc2)NC(=O)[C@@H](Cc2ccccc2)NC(=O)CC2(CCCCC2)SSC[C@@H](C(=O)N2CCC[C@H]2C(=O)N[C@@H](CCCNC(=N)N)C(=O)NCC(=O)NCCO)NC(=O)[C@H](CC(N)=O)NC1=O [[1-(beta-mercapto-beta,beta-cyclopentamethylenepropionic acid), 2-D-phenylalanine, 4-isoleucine, 9-glycine-N-(beta-hydroxy)ethylamide]-arginine vasopressin] ([dF]FINCPRG-NHCH2CH2OH; linker N-5 via X1) | 8.20 ± 0.12 | 6.92 ± 0.07 | – | –
8 | CCCCNC(=O)CNC(=O)[C@H](CCCNC(=N)N)NC(=O)[C@@H]1CCCN1C(=O)[C@@H]1CSSC2(CCCCC2)CC(=O)N[C@H](Cc2ccccc2)C(=O)N[C@@H](Cc2ccccc2)C(=O)N[C@@H]([C@@H](C)CC)C(=O)N[C@@H](CC(N)=O)C(=O)N1 [[1-(beta-mercapto-beta,beta-cyclopentamethylenepropionic acid), 2-D-phenylalanine, 4-isoleucine, 9-glycine-N-(n-butyl)amide]-arginine vasopressin] ([dF]FINCPRG-NHBu; linker N-5 via X1) | 7.66 ± 0.05 | 6.80 ± 0.08 | – | –
9 | CC[C@H](C)[C@@H]1NC(=O)[C@H](Cc2ccccc2)NC(=O)[C@@H](Cc2ccccc2)NC(=O)CC2(CCCCC2)SSC[C@@H](C(=O)N2CCC[C@H]2C(=O)N[C@@H](CCCNC(=N)N)C(=O)NCC(=O)NC)NC(=O)[C@H](CC(N)=O)NC1=O [[1-(beta-mercapto-beta,beta-cyclopentamethylenepropionic acid), 2-D-phenylalanine, 4-isoleucine, 9-glycine-N-methylamide]-arginine vasopressin] ([dF]FINCPRG-NHMe; linker N-5 via X1) | 8.07 ± 0.07 | 6.22 | – | –
10 | CC[C@H](C)[C@@H]1NC(=O)[C@H](Cc2ccccc2)NC(=O)[C@@H](Cc2ccccc2)NC(=O)CC2(CCCCC2)SSC[C@@H](C(=O)N2CCC[C@H]2C(=O)N[C@@H](CCCNC(=N)N)C(=O)NCC(=O)NCC(N)=O)NC(=O)[C@H](CC(N)=O)NC1=O [[1-(beta-mercapto-beta,beta-cyclopentamethylenepropionic acid), 2-D-phenylalanine, 4-isoleucine, 9-glycine]-arginine vasopressinyl glycinamide] ([dF]FINCPRGG-NH2; linker N-5 via X1) | 7.83 ± 0.04 | 7.72 | – | –
11 | CCCCNC(=O)[C@H](CCCNC(=N)N)NC(=O)[C@@H]1CCCN1C(=O)[C@@H]1CSSC2(CCCCC2)CC(=O)N[C@H](Cc2ccc(OCC)cc2)C(=O)N[C@@H](Cc2ccccc2)C(=O)N[C@@H]([C@@H](C)CC)C(=O)N[C@@H](CC(N)=O)C(=O)N1 [[1-beta-mercapto-beta,beta-cyclopentamethylenepropionic acid), 2-(D-O-ethyl)tyrosine, 4-isoleucine, 8-arginine-N-(n-butyl)amide, 9-desglycinamide] vasopressin] ([dY](Et)FINCPR-NHBu; linker N-5 via X1) | 7.62 ± 0.09 | 7.51 ± 0.08 | – | –
12 | CC[C@H](C)[C@@H]1NC(=O)[C@H](Cc2ccccc2)NC(=O)[C@@H](Cc2ccc(O)cc2)NC(=O)CC2(CCCCC2)SSC[C@@H](C(=O)N2CCC[C@H]2C(=O)N[C@@H](CCCNC(=N)N)C(=O)NCCN)NC(=O)[C@H](CC(N)=O)NC1=O [[1-beta-mercapto-beta,beta-cyclopentamethylenepropionic acid, 2-D-tyrosine, 4-isoleucine, 8-arginine-N-(beta-amino)ethylamide, 9-desglycinamide] vasopressin] ([dY]FINCPR-Ethylenediamine; linker N-5 via X1) | 7.81 ± 0.06 | 7.93 ± 0.08 | – | –
13 | CC[C@H](C)[C@@H]1NC(=O)[C@H](Cc2ccccc2)NC(=O)[C@@H](Cc2ccccc2)NC(=O)CC2(CCCCC2)SSC[C@@H](C(=O)N2CCC[C@H]2C(=O)N[C@@H](CCCNC(=N)N)C(=O)NCC(=O)O)NC(=O)[C@H](CC(N)=O)NC1=O [d(CH2)5 [D-Phe^2,Ile^ 4]AVP acid, [1-(beta-mercapto-beta,beta-cyclopentamethylenepropionic acid), 2-D-phenylalanine, 4-isoleucine, 9-glycine]-arginine vasopressin] ([dF]FINCPRG-OH; linker N-5 via X1) | – | – | 7.11 ± 0.11 | 6.94 ± 0.08
14 | CC[C@H](C)[C@@H]1NC(=O)[C@H](Cc2ccccc2)NC(=O)[C@@H](Cc2ccccc2)NC(=O)CC2(CCCCC2)SSC[C@@H](C(=O)N2CCC[C@H]2C(=O)N[C@@H](CCCNC(=N)N)C(=O)NCC(N)=O)NC(=O)[C@H](CC(N)=O)NC1=O [d(CH2)5 [D-Phe^2,Ile^ 4]AVP, [1-(beta-mercapto-beta,beta-cyclopentamethylenepropionic acid), 2-D-phenylalanine, 4-isoleucine]-arginine vasopressin, reference compound] ([dF]FINCPRG-NH2; linker N-5 via X1) | – | – | 8.24 ± 0.08 | 7.86 ± 0.05
15 | CCOc1ccc(C[C@H]2NC(=O)CC3(CCCCC3)SSC[C@@H](C(=O)N3CCC[C@H]3C(=O)N[C@@H](CCCNC(=N)N)C(=O)NCC(N)=O)NC(=O)[C@H](CC(N)=O)NC(=O)[C@H](C(C)C)NC(=O)[C@H](Cc3ccccc3)NC2=O)cc1 [d(CH2)5 [D-Tyr(Et)^2]VAVP, [1-(beta-mercapto-beta,beta-cyclopentamethylenepropionic acid), 2-D-(O-ethyl)tyrosine, 4-valine]-arginine vasopressin, reference compound] ([dY](Et)FVNCPRG-NH2; linker N-5 via X1) | – | – | 7.81 ± 0.07 | 8.22 ± 0.12
